Source: patent US20240180880A1, “METHODS OF USING EHMT2 INHIBITORS IN TREATING OR PREVENTING BLOOD DISORDERS” (Epizyme, Inc., priority 2017, published 2024)
Like-named read-outs stand apart in the source and are kept apart here.

System: 284 cell lines
Assay: cells
Conditions: Homo sapiens
Procedure: A screen of 284 cell lines to assess the antiproliferative effect of EHMT2 inhibition was conducted by treating cell lines in 384-well format with a half-log step dilutions of Compound 205 over 10 concentrations with a maximum concentration of 0.1% v/v DMSO. Cells were plated on Day 0 and treated with compound on Day 1. Culture medium was replaced on day 7 and cells redosed. After 10-day incubation, cells were fixed and stained with nuclear dye. Automated fluorescence microscopy was carried out using a Molecular Devices ImageXpress Micro XL high-content imager, and images were collected with a 4× objective. 16-bit TIFF images were acquired and analyzed with MetaXpress 5.1.0.41 software. Cell proliferation was measured by the fluorescence intensity of the incorporated nuclear dye. Cell count IC50 is the test compound concentration at 50% of maximal response of the untreated control.

Compound: CNc1cc(C)nc(Nc2ccc(OC)c(OCCCN3CCCC3)c2)n1 [Compound 205]
- IC50 (NCI-H508, read-out: Cell Count IC50, NCI-H508, Colon): > 10 µM
- IC50 (NCI-H520, read-out: Cell Count IC50, NCI-H520, Lung, NSCLC): > 10 µM
- IC50 (NCI-H596, read-out: Cell Count IC50, NCI-H596, Lung, NSCLC): > 10 µM
- IC50 (NCI-H661, read-out: Cell Count IC50, NCI-H661, Lung, NSCLC): 0.1 to 1 µM
- IC50 (NCI-H747, read-out: Cell Count IC50, NCI-H747, Colon): 1 to 10 µM
- IC50 (NTERA-2-cl-D1, read-out: Cell Count IC50, NTERA-2 cl.D1, Testis): 1 to 10 µM
- IC50 (OE19, read-out: Cell Count IC50, OE19, Head and Neck): > 10 µM
- IC50 (OE33, read-out: Cell Count IC50, OE33, Head and Neck): > 10 µM
- IC50 (OVCAR-3, read-out: Cell Count IC50, OVCAR3, Female GU, Ovary): > 10 µM
- IC50 (PANC-1, read-out: Cell Count IC50, PANC-1, Pancreas): 1 to 10 µM
- IC50 (PFSK-1, read-out: Cell Count IC50, PFSK-1, Central Nervous System, Glioma): > 10 µM
- IC50 (PSN1, read-out: Cell Count IC50, PSN-1, Pancreas): 1 to 10 µM
- IC50 (RKOE6, read-out: Cell Count IC50, RKOE6, Colon): 1 to 10 µM
- IC50 (RL95-2, read-out: Cell Count IC50, RL95-2, Female GU, Uterus): > 10 µM
- IC50 (RPMI-6666, read-out: Cell Count IC50, RPMI 6666, Hematopoietic, Lymphoma): 0.1 to 1 µM
- IC50 (RPMI-7951, read-out: Cell Count IC50, RPMI-7951, Skin, Melanoma): 1 to 10 µM
- IC50 (RPMI-8226, read-out: Cell Count IC50, RPMI 8226, Hematopoietic, Myeloma): 1 to 10 µM
- IC50 (RS4-11, read-out: Cell Count IC50, RS4;11, Hematopoietic, Leukemia): 1 to 10 µM
- IC50 (Raji, read-out: Cell Count IC50, Raji, Hematopoietic, Lymphoma): > 10 µM
- IC50 (Ramos, read-out: Cell Count IC50, Ramos (RA 1), Hematopoietic, Lymphoma): 1 to 10 µM
- IC50 (SAOS-2, read-out: Cell Count IC50, SaOS2, Bone, Osteosarcoma): 0.1 to 1 µM
- IC50 (SCC-4, read-out: Cell Count IC50, SCC-4, Head and Neck): > 10 µM
- IC50 (SCC-9, read-out: Cell Count IC50, SCC-9, Head and Neck): < 0.01 µM
- IC50 (SCC-25, read-out: Cell Count IC50, SCC-25, Head and Neck): < 0.01 µM
- IC50 (SCaBER, read-out: Cell Count IC50, SCaBER, Bladder): 1 to 10 µM
- IC50 (SHP77, read-out: Cell Count IC50, SHP-77, Lung, SCLC): > 10 µM
- IC50 (SJRH30, read-out: Cell Count IC50, SJRH30, Soft & Connective Tissue, Sarcoma): 1 to 10 µM
- IC50 (SJSA-1, read-out: Cell Count IC50, SJSA1, Bone, Osteosarcoma): 1 to 10 µM
- IC50 (SK-BR-3, read-out: Cell Count IC50, SK-BR-3, Breast): 1 to 10 µM
- IC50 (SK-LMS-1, read-out: Cell Count IC50, SK-LMS-1, Soft & Connective Tissue, Sarcoma): > 10 µM
- IC50 (SK-MEL3, read-out: Cell Count IC50, SK-MEL-3, Skin, Melanoma): 1 to 10 µM
- IC50 (SK-MEL-1, read-out: Cell Count IC50, SK-MEL-1, Skin, Melanoma): 1 to 10 µM
- IC50 (SK-MEL-28, read-out: Cell Count IC50, SK-MEL-28, Skin, Melanoma): 1 to 10 µM
- IC50 (SK-MES-1, read-out: Cell Count IC50, SKMES1, Lung, NSCLC): 1 to 10 µM
- IC50 (SK-N-AS, read-out: Cell Count IC50, SK-N-AS, Central Nervous System, Neuroblastoma): 1 to 10 µM
- IC50 (SK-N-FI, read-out: Cell Count IC50, SK-N-FI, Central Nervous System, Neuroblastoma): > 10 µM
- IC50 (SK-NEP-1, read-out: Cell Count IC50, SK-NEP-1, Kidney): > 10 µM
- IC50 (SK-OV-3, read-out: Cell Count IC50, SKOV3, Female GU, Ovary): > 10 µM
- IC50 (SK-UT-1, read-out: Cell Count IC50, SK-UT-1, Soft & Connective Tissue, Sarcoma): > 10 µM
- IC50 (SNB-19, read-out: Cell Count IC50, SNB-19, Central Nervous System, Glioma): 1 to 10 µM
- IC50 (SNU1, read-out: Cell Count IC50, SNU-1, Stomach): > 10 µM
- IC50 (SNU-5, read-out: Cell Count IC50, SNU-5, Stomach): 1 to 10 µM
- IC50 (SNU-16, read-out: Cell Count IC50, SNU-16, Stomach): 1 to 10 µM
- IC50 (SNU-423, read-out: Cell Count IC50, SNU-423, Liver): 1 to 10 µM
- IC50 (SNU-C2B, read-out: Cell Count IC50, SNU-C2B, Colon): 1 to 10 µM
- IC50 (ST486, read-out: Cell Count IC50, ST486, Hematopoietic, Lymphoma): 1 to 10 µM
- IC50 (SU-DHL10, read-out: Cell Count IC50, SU-DHL-10, Hematopoietic, Lymphoma): 1 to 10 µM
- IC50 (SU-DHL-4, read-out: Cell Count IC50, SU-DHL-4, Hematopoietic, Lymphoma): 0.1 to 1 µM
- IC50 (SU-DHL-8, read-out: Cell Count IC50, SU-DHL-8, Hematopoietic, Lymphoma): 1 to 10 µM
- IC50 (SU.86.86, read-out: Cell Count IC50, SU.86.86, Pancreas): > 10 µM
- IC50 (SUP-T1, read-out: Cell Count IC50, SUP-T1, Hematopoietic, Lymphoma): 1 to 10 µM
- IC50 (SW13, read-out: Cell Count IC50, SW-13, Endocrine, Adrenal gland): > 10 µM
- IC50 (SW48, read-out: Cell Count IC50, SW48, Colon): 1 to 10 µM
- IC50 (SW480, read-out: Cell Count IC50, SW480, Colon): 1 to 10 µM
- IC50 (SW684, read-out: Cell Count IC50, SW684, Soft & Connective Tissue, Sarcoma): 0.1 to 1 µM
- IC50 (SW837, read-out: Cell Count IC50, SW837, Colon): 1 to 10 µM
- IC50 (SW872, read-out: Cell Count IC50, SW872, Soft & Connective Tissue, Sarcoma): 1 to 10 µM
- IC50 (SW900, read-out: Cell Count IC50, SW900, Lung, SCLC): 1 to 10 µM
- IC50 (SW948, read-out: Cell Count IC50, SW948, Colon): > 10 µM
- IC50 (SW 954, read-out: Cell Count IC50, SW954, Female GU, Vulva): > 10 µM
- IC50 (SW 962, read-out: Cell Count IC50, SW962, Female GU, Vulva): > 10 µM
- IC50 (SW982, read-out: Cell Count IC50, SW982, Soft & Connective Tissue, Sarcoma): > 10 µM
- IC50 (SW1088, read-out: Cell Count IC50, SW1088, Central Nervous System, Glioma): 1 to 10 µM
- IC50 (SW1353, read-out: Cell Count IC50, SW1353, Bone, Osteosarcoma): > 10 µM
- IC50 (SW1417, read-out: Cell Count IC50, SW1417, Colon): 1 to 10 µM
- IC50 (SW1463, read-out: Cell Count IC50, SW1463, Colon): 0.1 to 1 µM
- IC50 (SW1783, read-out: Cell Count IC50, SW1783, Central Nervous System, Glioma): 1 to 10 µM
- IC50 (SW-403, read-out: Cell Count IC50, SW403, Colon): 1 to 10 µM
- IC50 (SW-620, read-out: Cell Count IC50, SW620, Colon): 1 to 10 µM
- IC50 (SiHa, read-out: Cell Count IC50, SiHa, Female GU, Cervix): 1 to 10 µM
- IC50 (T47D, read-out: Cell Count IC50, T47D, Breast): > 10 µM
